Data taken from PubChem BioAssay (NCI).
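Compound exposure: 48 hours, 5 concentrations, 96-well plates. The concentration for 50% growth inhibition is given as GI50. TGI is the concentration that stops growth completely.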

What was measured:
Test in all cases: DTP human tumour cell line panel, 48 h
HL-60(TB) leukemia = test system: HL-60(TB) leukemia
ACHN renal = test system: ACHN renal
BT-549 breast = test system: BT-549 breast
HS 578T breast = test system: HS 578T breast
UACC-62 melanoma = test system: UACC-62 melanoma
TK-10 renal = test system: TK-10 renal
SNB-19 CNS = test system: SNB-19 CNS
MCF7 breast = test system: MCF7 breast
SF-295 CNS = test system: SF-295 CNS
COLO 205 colon = test system: COLO 205 colon
A498 renal = test system: A498 renal
NCI-H460 lung = test system: NCI-H460 lung
OVCAR-8 ovarian = test system: OVCAR-8 ovarian
SF-539 CNS = test system: SF-539 CNS
CAKI-1 renal = test system: CAKI-1 renal
KM12 colon = test system: KM12 colon
K-562 leukemia = test system: K-562 leukemia
786-0 renal = test system: 786-0 renal
SNB-75 CNS = test system: SNB-75 CNS
EKVX NSCLC = test system: EKVX NSCLC
NCI-H522 lung = test system: NCI-H522 lung
IGROV1 ovarian = test system: IGROV1 ovarian
T-47D breast = test system: T-47D breast
RXF 393 renal = test system: RXF 393 renal
NCI-H23 lung = test system: NCI-H23 lung
SR leukemia = test system: SR leukemia
SK-MEL-2 melanoma = test system: SK-MEL-2 melanoma
HOP-92 NSCLC = test system: HOP-92 NSCLC
SF-268 CNS = test system: SF-268 CNS
PC-3 prostate = test system: PC-3 prostate
SK-OV-3 ovarian = test system: SK-OV-3 ovarian
SK-MEL-28 melanoma = test system: SK-MEL-28 melanoma
HT29 colon = test system: HT29 colon
MOLT-4 leukemia = test system: MOLT-4 leukemia
UACC-257 melanoma = test system: UACC-257 melanoma
NCI-H226 lung = test system: NCI-H226 lung
OVCAR-5 ovarian = test system: OVCAR-5 ovarian
SK-MEL-5 melanoma = test system: SK-MEL-5 melanoma
SN12C renal = test system: SN12C renal
U251 CNS = test system: U251 CNS
LOX IMVI melanoma = test system: LOX IMVI melanoma
MALME-3M melanoma = test system: MALME-3M melanoma
CCRF-CEM leukemia = test system: CCRF-CEM leukemia
OVCAR-4 ovarian = test system: OVCAR-4 ovarian
OVCAR-3 ovarian = test system: OVCAR-3 ovarian
HOP-62 NSCLC = test system: HOP-62 NSCLC
HCC-2998 colon = test system: HCC-2998 colon
MDA-MB-231 breast = test system: MDA-MB-231 breast
UO-31 renal = test system: UO-31 renal
HCT-15 colon = test system: HCT-15 colon
HCT-116 colon = test system: HCT-116 colon
A549 NSCLC = test system: A549 NSCLC
DU-145 prostate = test system: DU-145 prostate
RPMI-8226 leukemia = test system: RPMI-8226 leukemia
SW-620 colon = test system: SW-620 colon
M14 melanoma = test system: M14 melanoma
MDA-MB-435 = test system: MDA-MB-435
NCI/ADR-RES ovarian = test system: NCI/ADR-RES ovarian

ClC(Cl)c1nc(-c2ccccc2)n2nc(-c3ccccc3)cc2n1
GI50 (HL-60(TB) leukemia): 1.65 µM
TGI (HL-60(TB) leukemia): 7.69 µM
GI50 (ACHN renal): 0.572 µM
TGI (ACHN renal): 3.1 µM
GI50 (BT-549 breast): > 100 µM
TGI (BT-549 breast): > 100 µM
GI50 (HS 578T breast): 1.91 µM
TGI (HS 578T breast): 6.46 µM
GI50 (UACC-62 melanoma): 3.5 µM
TGI (UACC-62 melanoma): > 100 µM
GI50 (TK-10 renal): 1.87 µM
TGI (TK-10 renal): 5.7 µM
GI50 (SNB-19 CNS): 1.55 µM
TGI (SNB-19 CNS): 6.85 µM
GI50 (MCF7 breast): 1.08 µM
TGI (MCF7 breast): > 100 µM
GI50 (SF-295 CNS): 1.83 µM
TGI (SF-295 CNS): 5.66 µM
GI50 (COLO 205 colon): 0.778 µM
TGI (COLO 205 colon): 3.42 µM
GI50 (A498 renal): 1.31 µM
TGI (A498 renal): 2.76 µM
GI50 (NCI-H460 lung): 0.411 µM
TGI (NCI-H460 lung): 1.87 µM
GI50 (OVCAR-8 ovarian): 1.73 µM
TGI (OVCAR-8 ovarian): > 100 µM
GI50 (SF-539 CNS): 1.78 µM
TGI (SF-539 CNS): 5.57 µM
GI50 (CAKI-1 renal): 1.6 µM
TGI (CAKI-1 renal): 7.13 µM
GI50 (KM12 colon): 0.696 µM
TGI (KM12 colon): 2.38 µM
GI50 (K-562 leukemia): 2.59 µM
TGI (K-562 leukemia): > 100 µM
GI50 (786-0 renal): 8.7 µM
TGI (786-0 renal): > 100 µM
GI50 (SNB-75 CNS): 1.12 µM
TGI (SNB-75 CNS): 5.24 µM
GI50 (EKVX NSCLC): 1.94 µM
TGI (EKVX NSCLC): 5.75 µM
GI50 (NCI-H522 lung): 3.63 µM
TGI (NCI-H522 lung): > 100 µM
GI50 (IGROV1 ovarian): 3.06 µM
TGI (IGROV1 ovarian): > 100 µM
GI50 (T-47D breast): 2.13 µM
TGI (T-47D breast): > 100 µM
GI50 (RXF 393 renal): 0.533 µM
TGI (RXF 393 renal): 2.38 µM
GI50 (NCI-H23 lung): 1.42 µM
TGI (NCI-H23 lung): 4.09 µM
GI50 (SR leukemia): 1.02 µM
TGI (SR leukemia): 5.61 µM
GI50 (SK-MEL-2 melanoma): 31.6 µM
TGI (SK-MEL-2 melanoma): > 100 µM
GI50 (HOP-92 NSCLC): 1.41 µM
TGI (HOP-92 NSCLC): 5.9 µM
GI50 (SF-268 CNS): 2.28 µM
TGI (SF-268 CNS): > 100 µM
GI50 (PC-3 prostate): 1.66 µM
TGI (PC-3 prostate): 4.73 µM
GI50 (SK-OV-3 ovarian): 2.7 µM
TGI (SK-OV-3 ovarian): 9.61 µM
GI50 (SK-MEL-28 melanoma): 1.65 µM
TGI (SK-MEL-28 melanoma): 3.1 µM
GI50 (HT29 colon): 0.442 µM
TGI (HT29 colon): > 100 µM
GI50 (MOLT-4 leukemia): 3.33 µM
TGI (MOLT-4 leukemia): > 100 µM
GI50 (UACC-257 melanoma): 2.1 µM
TGI (UACC-257 melanoma): 5.19 µM
GI50 (NCI-H226 lung): 48 µM
TGI (NCI-H226 lung): > 100 µM
GI50 (OVCAR-5 ovarian): 2.31 µM
TGI (OVCAR-5 ovarian): 6.44 µM
GI50 (SK-MEL-5 melanoma): > 100 µM
TGI (SK-MEL-5 melanoma): > 100 µM
GI50 (SN12C renal): > 100 µM
TGI (SN12C renal): > 100 µM
GI50 (U251 CNS): 0.758 µM
TGI (U251 CNS): 6.44 µM
GI50 (LOX IMVI melanoma): > 100 µM
TGI (LOX IMVI melanoma): > 100 µM
GI50 (MALME-3M melanoma): 3.3 µM
TGI (MALME-3M melanoma): > 100 µM
GI50 (CCRF-CEM leukemia): > 100 µM
TGI (CCRF-CEM leukemia): > 100 µM
GI50 (OVCAR-4 ovarian): 1.65 µM
TGI (OVCAR-4 ovarian): 5.64 µM
GI50 (OVCAR-3 ovarian): 1.04 µM
TGI (OVCAR-3 ovarian): 2.68 µM
GI50 (HOP-62 NSCLC): 0.586 µM
TGI (HOP-62 NSCLC): 5.6 µM
GI50 (HCC-2998 colon): 0.573 µM
TGI (HCC-2998 colon): 2.05 µM

O=C(NC1CCCCC1)OCc1c(COC(=O)NC2CCCCC2)c(-c2ccc(Cl)c(Cl)c2)n2c1CCC2
GI50 (MDA-MB-231 breast): 5.6 µM
TGI (MDA-MB-231 breast): 50.7 µM
GI50 (HL-60(TB) leukemia): 2.24 µM
TGI (HL-60(TB) leukemia): > 100 µM
GI50 (ACHN renal): 3.04 µM
TGI (ACHN renal): 41.6 µM
GI50 (BT-549 breast): 3.53 µM
TGI (BT-549 breast): 14.2 µM
GI50 (HS 578T breast): 3.72 µM
TGI (HS 578T breast): 21.4 µM
GI50 (UACC-62 melanoma): 2.37 µM
TGI (UACC-62 melanoma): 12.9 µM
GI50 (TK-10 renal): 3.72 µM
TGI (TK-10 renal): 31.7 µM
GI50 (UO-31 renal): 3.17 µM
TGI (UO-31 renal): 16.2 µM
GI50 (HCT-15 colon): 5.56 µM
TGI (HCT-15 colon): 43.2 µM
GI50 (SNB-19 CNS): 5.79 µM
TGI (SNB-19 CNS): 47.6 µM
GI50 (MCF7 breast): 3.83 µM
TGI (MCF7 breast): 27.9 µM
GI50 (SF-295 CNS): 3.38 µM
TGI (SF-295 CNS): 29.1 µM
GI50 (COLO 205 colon): 4.2 µM
TGI (COLO 205 colon): 16.6 µM
GI50 (A498 renal): 1.59 µM
TGI (A498 renal): 3.32 µM
GI50 (NCI-H460 lung): 1.19 µM
TGI (NCI-H460 lung): 14.1 µM
GI50 (OVCAR-8 ovarian): 4.3 µM
TGI (OVCAR-8 ovarian): 32.3 µM
GI50 (SF-539 CNS): 3.06 µM
TGI (SF-539 CNS): 13.7 µM
GI50 (CAKI-1 renal): 2.35 µM
TGI (CAKI-1 renal): > 100 µM
GI50 (KM12 colon): 11.9 µM
TGI (KM12 colon): 29.3 µM
GI50 (K-562 leukemia): 4.83 µM
TGI (K-562 leukemia): > 100 µM
GI50 (786-0 renal): 3.26 µM
TGI (786-0 renal): 10.7 µM
GI50 (SNB-75 CNS): 4.19 µM
TGI (SNB-75 CNS): 25 µM
GI50 (EKVX NSCLC): 9.79 µM
TGI (EKVX NSCLC): 94.4 µM
GI50 (NCI-H522 lung): 3.01 µM
TGI (NCI-H522 lung): 11.8 µM
GI50 (HCT-116 colon): 3.72 µM
TGI (HCT-116 colon): 15.2 µM
GI50 (IGROV1 ovarian): 5.62 µM
TGI (IGROV1 ovarian): > 100 µM
GI50 (T-47D breast): 3.83 µM
TGI (T-47D breast): 19.5 µM
GI50 (RXF 393 renal): 2.87 µM
TGI (RXF 393 renal): 9.36 µM
GI50 (A549 NSCLC): 7.47 µM
TGI (A549 NSCLC): 94.2 µM
GI50 (DU-145 prostate): 3.72 µM
TGI (DU-145 prostate): 20.9 µM
GI50 (NCI-H23 lung): 4.35 µM
TGI (NCI-H23 lung): 21 µM
GI50 (SK-MEL-2 melanoma): 3.72 µM
TGI (SK-MEL-2 melanoma): 12.7 µM
GI50 (RPMI-8226 leukemia): 4.55 µM
TGI (RPMI-8226 leukemia): 29 µM
GI50 (HOP-92 NSCLC): 1.94 µM
TGI (HOP-92 NSCLC): 12.5 µM
GI50 (SF-268 CNS): 3.79 µM
TGI (SF-268 CNS): 21.3 µM
GI50 (PC-3 prostate): 6.05 µM
TGI (PC-3 prostate): 29.3 µM
GI50 (SK-OV-3 ovarian): 2.58 µM
TGI (SK-OV-3 ovarian): 11.8 µM
GI50 (SW-620 colon): 3.89 µM
TGI (SW-620 colon): 22.6 µM
GI50 (SK-MEL-28 melanoma): 14.2 µM
TGI (SK-MEL-28 melanoma): 45.3 µM
GI50 (HT29 colon): 4.97 µM
TGI (HT29 colon): 71.4 µM
GI50 (MOLT-4 leukemia): 2.6 µM
TGI (MOLT-4 leukemia): > 100 µM
GI50 (UACC-257 melanoma): 10.8 µM
TGI (UACC-257 melanoma): 37.4 µM
GI50 (NCI-H226 lung): 2.51 µM
TGI (NCI-H226 lung): 22.4 µM
GI50 (OVCAR-5 ovarian): 5.19 µM
TGI (OVCAR-5 ovarian): 44.3 µM
GI50 (SK-MEL-5 melanoma): 7.06 µM
TGI (SK-MEL-5 melanoma): 20.8 µM
GI50 (SN12C renal): 3.58 µM
TGI (SN12C renal): > 100 µM
GI50 (U251 CNS): 4.43 µM
TGI (U251 CNS): 22.8 µM
GI50 (LOX IMVI melanoma): 2.98 µM
TGI (LOX IMVI melanoma): 16.4 µM
GI50 (MALME-3M melanoma): 5.92 µM
TGI (MALME-3M melanoma): 22.7 µM
GI50 (CCRF-CEM leukemia): 3.21 µM
TGI (CCRF-CEM leukemia): > 100 µM
GI50 (M14 melanoma): 4.17 µM
TGI (M14 melanoma): 16.3 µM
GI50 (MDA-MB-435): 8.23 µM
TGI (MDA-MB-435): 28.8 µM
GI50 (OVCAR-4 ovarian): 3.42 µM
TGI (OVCAR-4 ovarian): 62.9 µM
GI50 (OVCAR-3 ovarian): 5.32 µM
TGI (OVCAR-3 ovarian): 22.3 µM
GI50 (NCI/ADR-RES ovarian): 4.24 µM
TGI (NCI/ADR-RES ovarian): 18.6 µM
GI50 (HOP-62 NSCLC): 4.57 µM
TGI (HOP-62 NSCLC): 21 µM
GI50 (HCC-2998 colon): 10.5 µM
TGI (HCC-2998 colon): 23 µM
